Measured values: patent US20100317607A1, “USE OF COMPOUNDS FOR PREPARING ANTI-TUBERCULOSIS AGENTS” (INFECTIOUS DISEASE RESEARCH INSTITUTE, priority 2007, published 2010)
In brackets after ≈: the same amount, converted by molar mass. Where a name gives a salt, the structure may show the parent alone.

Tests used:
[1] = system: non replicating phase of M. tuberculosis (H37Rv with a plasmid with an acetimidase promoter driving a luciferase gene); experiment: microbe, parasite or virus in culture; assay type: cell-based; settings: non replicating M. tuberculosis H37Rv luciferase strain; for MIC: Mycobacterium tuberculosis, read-out: LORA (TB growth inhibition, MIC)
[2] = system: H37Rv strain of M. tuberculosis; experiment: Alamar Blue Susceptibility Test (MABA); assay type: cell-based; settings: H37Rv strain of M. tuberculosis, Alamar Blue; for MIC: Mycobacterium tuberculosis, read-out: MABA (TB growth inhibition, colourimetric assay)

SMILES | MIC [1] | MIC [2] | LORA (TB growth inhibition, MIC) [1] | MABA (TB growth inhibition, colourimetric assay) [2]
CN(Cc1ccccc1)c1nc(N2CCCCC2)nc2ccccc12 [Compound 35, N-Benzyl-N-methyl-2-(piperidin-1-yl)quinazolin-4-amine] | < 10 µM | < 10 µM |  | 
C[C@@H](Nc1nc(N2CCCCC2)nc2ccccc12)c1ccc2ccccc2c1 [Compound 100, (R)—N-(1-(Naphthalen-2-yl)ethyl)-2-(piperidin-1-yl)quinazolin-4-amine hydrochloride] | 10 to 50 µM | < 10 µM |  | 
Clc1cccc(CNc2nc(N3CCCCC3)nc3ccccc23)c1 [Compound 41, N-(3-Chlorobenzyl)-2-(piperidin-1-yl)quinazolin-4-amine] | 10 to 50 µM (≈ 3.53 to 17.6 µg/mL) | < 10 µM |  | 
COC(=O)c1ccc(CNc2nc(N3CCCCC3)nc3ccccc23)cc1 [Compound 93, Methyl 4-((2-(piperidin-1-yl)quinazolin-4-ylamino)methyl)benzoate] | 50 to 128 µM (≈ 18.8 to 48.2 µg/mL) | < 10 µM |  | 
COc1cc2nc(N3CCOCC3)nc(NCc3ccccc3)c2cc1OC [Compound 17, N-Benzyl-6,7-dimethoxy-2-morpholinoquinazolin-4-amine] |  | 50 to 128 µM (≈ 19 to 48.7 µg/mL) | − | 
CC(Nc1nc(N2CCNCC2)nc2ccccc12)c1ccccc1 (stereo not shown) [Compound 8, N-(1-Phenylethyl)-2-(piperazin-1-yl)quinazolin-4-amine] | 10 to 50 µM (≈ 3.33 to 16.7 µg/mL) | 50 to 128 µM (≈ 16.7 to 42.7 µg/mL) |  | 
COc1ccc(CNc2nc(N3CCCCC3)nc3ccccc23)cc1 [Compound 44, N-(4-Methoxybenzyl)-2-(piperidin-1-yl)quinazolin-4-amine] | 10 to 50 µM (≈ 3.48 to 17.4 µg/mL) | < 10 µM |  | 
COc1ccc(N2CCN(c3nc(NCc4ccccc4)c4ccccc4n3)CC2)cc1 [Compound 136, N-Benzyl-2-(4-(4-methoxyphenyl)piperazin-1-yl)quinazolin-4-amine hydrochloride] | 10 to 50 µM | < 10 µM |  | 
Fc1ccccc1CNc1nc(N2CCCCC2)nc2ccccc12 [Compound 65, N-(2-Fluorobenzyl)-2-(piperidin-1-yl)quinazolin-4-amine] | 10 to 50 µM (≈ 3.36 to 16.8 µg/mL) | < 10 µM |  | 
c1ccc2c(CNc3nc(N4CCCCC4)nc4ccccc34)cccc2c1 [Compound 37, N-(Naphthalen-1-ylmethyl)-2-(piperidin-1-yl)quinazolin-4-amine] | < 10 µM | < 10 µM |  | 
c1ccc2c(c1)CCN(c1nc(N3CCCCC3)nc3ccccc13)C2 [Compound 36, 4-(3,4-Dihydroisoquinolin-2(1H)-yl)-2-(piperidin-1-yl)quinazoline] | 10 to 50 µM (≈ 3.44 to 17.2 µg/mL) | < 10 µM |  | 
Cc1ccc(CNc2nc(NCc3ccc(Cl)cc3)c3ccccc3n2)cc1 [Compound 76, N^4-(4-Chlorobenzyl)-N^2-(4-methylbenzyl)quinazoline-2,4-diamine] | 10 to 50 µM (≈ 3.89 to 19.4 µg/mL) | < 10 µM |  | 
Clc1ccc(CCNc2nc(N3CCCCC3)nc3ccccc23)cc1 [Compound 83, N-(4-Chlorophenethyl)-2-(piperidin-1-yl)quinazolin-4-amine hydrochloride] | < 10 µM | < 10 µM |  | 
FC(F)(F)c1ccc(CCNc2nc(N3CCCCC3)nc3ccccc23)cc1 [Compound 105, 2-(Piperidin-1-yl)-N-(4-(trifluoromethyl)phenethyl)quinazolin-4-amine] | < 10 µM | < 10 µM |  | 
FC(F)(F)c1ccc(CNc2nc(N3CCc4ccccc4C3)nc3ccccc23)cc1 [Compound 114, 2-(3,4-Dihydroisoquinolin-2(1H)-yl)-N-(4-(trifluoromethyl)benzyl)quinazolin-4-amine hydrochloride] | < 10 µM | < 10 µM |  | 
c1coc(CNc2nc(N3CCCCC3)nc3ccccc23)c1 [Compound 13, N-(Furan-2-ylmethyl)-2-(piperidin-1-yl)quinazolin-4-amine] | 10 to 50 µM (≈ 3.08 to 15.4 µg/mL) | < 10 µM |  | 

SMILES | MIC [1] | MIC [2] | LORA (TB growth inhibition, MIC) [1] | MABA (TB growth inhibition, colourimetric assay) [2]
Cc1cccc(CNc2nc(N3CCCCC3)nc3ccccc23)c1 [Compound 80, N-(3-Methylbenzyl)-2-(piperidin-1-yl)quinazolin-4-amine hydrochloride] | 10 to 50 µM | < 10 µM |  | 
c1ccc(CNc2nc(N3Cc4ccccc4C3)nc3ccccc23)cc1 [Compound 130, N-Benzyl-2-(isoindolin-2-yl)quinazolin-4-amine] |  | < 10 µM | − | 
c1ccc2c(NC34CC5CC(CC(C5)C3)C4)nc(N3CCCCC3)nc2c1 [Compound 59, N-(1′-Adamantyl)-2-(piperidin-1-yl)quinazolin-4-amine] |  |  | ++++ (key: TB growth<10 μM=++++; 10-50 μM=+++; 50-128 μM=++; >128 μM but inhibited=+; no inhibition=−) | +++ (10-50 μM=+++)
c1ccc(CNc2nc(N3CCOCC3)nc3ccccc23)cc1 [Compound 5, N-Benzyl-2-morpholinoquinazolin-4-amine] | 50 to 128 µM (≈ 16 to 41 µg/mL) | 50 to 128 µM (≈ 16 to 41 µg/mL) |  | 
c1ccc2c(NCC3CCCCC3)nc(N3CCCCC3)nc2c1 [Compound 45, N-(Cyclohexylmethyl)-2-(piperidin-1-yl)quinazolin-4-amine] | 10 to 50 µM (≈ 3.24 to 16.2 µg/mL) | < 10 µM |  | 
Fc1ccc(CNc2nc(N3CCCCC3)nc3ccccc23)cc1 [Compound 63, N-(4-Fluorobenzyl)-2-(piperidin-1-yl)quinazolin-4-amine] | 10 to 50 µM (≈ 3.36 to 16.8 µg/mL) | < 10 µM |  | 
c1ccc(CCNc2nc(N3CCCCC3)nc3ccccc23)cc1 [Compound 33, N-Phenethyl-2-(piperidin-1-yl)quinazolin-4-amine] | 10 to 50 µM (≈ 3.32 to 16.6 µg/mL) | < 10 µM |  | 
c1ccc(CN(Cc2ccccc2)c2nc(N3CCCCC3)nc3ccccc23)cc1 [Compound 66, N,N-Dibenzyl-2-(piperidin-1-yl)quinazolin-4-amine] | 10 to 50 µM (≈ 4.09 to 20.4 µg/mL) | < 10 µM |  | 
c1ccc(CNc2nc(N3CCc4ccccc4C3)nc3ccccc23)cc1 [Compound 30, N-Benzyl-2-(3,4-dihydroisoquinolin-2(1H)-yl)quinazolin-4-amine] | < 10 µM | < 10 µM |  | 
FC(F)(F)c1cccc(CNc2nc(N3CCCCC3)nc3ccccc23)c1 [Compound 49, 2-(Piperidin-1-yl)-N-(3-(trifluoromethyl)benzyl)quinazolin-4-amine] | 10 to 50 µM (≈ 3.86 to 19.3 µg/mL) | < 10 µM |  | 
CC(Nc1nc(N2CCN(S(=O)(=O)c3ccccc3)CC2)nc2ccccc12)c1ccccc1 (stereo not shown) [Compound 15, N-(1-Phenylethyl)-2-(4-(phenylsulfonyl)piperazin-1-yl)quinazolin-4-amine] |  | 50 to 128 µM (≈ 23.7 to 60.6 µg/mL) | − | 
FC(F)(F)c1ccc(CNc2nc(NCc3ccccc3)c3ccccc3n2)cc1 [Compound 128, N^4-Benzyl-N^2-(4-(trifluoromethyl)benzyl)quinazoline-2,4-diamine hydrochloride] | < 10 µM | < 10 µM |  | 
CC(Nc1nc(N2CCOCC2)nc2ccccc12)c1ccccc1 (stereo not shown) [Compound 9, 2-Morpholino-N-(1-phenylethyl)quinazolin-4-amine] | 50 to 128 µM (≈ 16.7 to 42.8 µg/mL) | 50 to 128 µM (≈ 16.7 to 42.8 µg/mL) |  | 
c1ccc(CNc2nc(NCc3ccccc3)c3ccccc3n2)cc1 [Compound 18, N^2,N^4-Dibenzylquinazoline-2,4-diamine] | 10 to 50 µM (≈ 3.4 to 17 µg/mL) | 10 to 50 µM (≈ 3.4 to 17 µg/mL) |  | 
CC(Nc1nc(N2CCCC2)nc2ccccc12)c1ccccc1 (stereo not shown) [Compound 14, N-(1-Phenylethyl)-2-(pyrrolidin-1-yl)quinazolin-4-amine] | 10 to 50 µM (≈ 3.18 to 15.9 µg/mL) | 10 to 50 µM (≈ 3.18 to 15.9 µg/mL) |  | 
Clc1ccc(CNc2nc(N3CCc4ccccc4C3)nc3ccccc23)cc1 [Compound 106, N-(4-Chlorobenzyl)-2-(3,4-dihydroisoquinolin-2(1H)-yl)quinazolin-4-amine hydrochloride] | < 10 µM | < 10 µM |  | 
